{"source": "paper PMC8378823", "about": "“X-ray free-electron laser studies reveal correlated motion during isopenicillin N synthase catalysis” (Science Advances, 2021)", "target": "T1, isopenicillin N synthase (IPNS) (Aspergillus nidulans, UniProt P05326)", "T1 construct": "gene ipnA; recombinant wild type (pJB703) from E. coli NM554; S55C form from pCOLD I, N-terminal His6 tag cut with 3C protease, 37,768 Da", "T1 sequence (P05326 1-331)": "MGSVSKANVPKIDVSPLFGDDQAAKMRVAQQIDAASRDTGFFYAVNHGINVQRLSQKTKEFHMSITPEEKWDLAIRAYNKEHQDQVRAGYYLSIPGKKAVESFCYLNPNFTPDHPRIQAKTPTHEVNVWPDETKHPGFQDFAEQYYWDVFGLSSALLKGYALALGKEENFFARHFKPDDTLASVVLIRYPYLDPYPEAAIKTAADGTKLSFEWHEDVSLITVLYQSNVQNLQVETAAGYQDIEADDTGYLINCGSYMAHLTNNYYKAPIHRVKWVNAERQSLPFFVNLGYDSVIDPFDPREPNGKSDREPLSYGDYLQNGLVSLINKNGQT", "assay": "SFX and cryo synchrotron crystal structure", "assay_type": "binding", "conditions": "Fe complex; formed in crystallo from ACV by about 30 min O2 exposure; SFX 1.60 Å at room temperature"}
{"smiles": "CC1(C)S[C@@H]2[C@H](NC(=O)CCC[C@H](N)C(=O)O)C(=O)N2[C@H]1C(=O)O", "note": "[isopenicillin N]", "values": [{"measurement": "SFX and cryo synchrotron crystal structure", "result": "Composite SFX 2mFo-DFc omit map for IPNS:Fe:IPN obtained by ~30-min O2 exposure"}]}
